Measurements: US12384797B2, “Thioeno[3,2-b] pyridin-7-amine compounds for treating familial dysautonomia” (PTC THERAPEUTICS, INC., priority 2019, dated 2025)

System: Elongator complex protein 1 (ELP1, also referred to as IKBKAP)
Assay: IKBKAP-HTRF assay (IKBKAP protein in lysates of FD patient-derived fibroblasts)
Format: cell-based, human
Details: 48 hours incubation, 7-point concentration curve
Experimental: The assay is used for the quantitative determination of Elongator complex protein 1 (ELP1, also referred to as IKBKAP) concentration in cell lysates using the HTRF® (Homogeneous Time-Resolved Fluorescence) technology. IKBKAP is detected in a sandwich HTRF assay by use of an anti-IKAP antibody labeled with a donor and an anti-IKAP antibody labeled with an acceptor.
Cells were thawed and incubated in DMEM-10% FBS for 72 hours. Cells were trypsinized, counted, and re-suspended to a concentration of 50,000 cells/mL in DMEM-10% FBS. A 199 μL aliquot of the cell suspensions were plated at 10,000 cells per well in a 96 well microtiter plate and incubated for 3 to 5 hours. […] Test compounds were serially diluted 3.16-fold in 100% DMSO to generate a 7-point concentration curve. A 1 μL aliquot of 200× compound solution was transferred to cell-containing wells, and cells were incubated for 48 hours in a cell culture incubator (37° C., 5% CO2, 100% relative humidity). Triplicate samples were set up for each compound concentration. After 48 hours, the supernatant was removed from the cells and 50 μL of the 1×LB4 lysis buffer, containing protease inhibitors, was added to the cells and incubated with shaking at room temperature for 1 hour. A 36 μL aliquot of this lysate was subsequently transferred to the 384-well plate containing 4 μL of the antibody solution (1:50 dilution of anti IKAP d2 and anti-IKAP K(9+8) in detection buffer). The 384-well plate was then centrifuged for 1 minute to bring the solutions to the bottom of the plate and incubated overnight at 4° C. Fluorescence for each well of the plate at 665 nm and 620 nm was measured was on the EnVision plate reader (Perkin Elmer). The ΔF for each sample is calculated by:
[formula] wherein Signal is the normalized fluorescence for each sample well and Blank is the average normalized average fluorescence for the Blank control wells.
The maximum fold increase (MFI) in IKBKAP protein abundance for compounds of Formula (I) or a form thereof relative to the vehicle control are provided in Table 1. MFI was calculated by dividing the ΔF value for each sample well by the sample ΔF for the vehicle control wells.
The EC2x for IKBKAP protein expression obtained from the 7-point concentration curve generated for each test compound according to the protocol in Biological Example 1 are also provided in Table 1. The term “EC2x for IKBKAP protein expression” is defined as the concentration of test compound that is effective in producing two times the amount of IKBKAP protein in a FD patient cell compared to the amount produced from the DMSO vehicle control.

In the case of `CC[C@H](N)Cc1sc2c(NCc3cccs3)cc(Cl)nc2c1C` [Compound 33, 2-[(2S)-2-aminobutyl]-5-chloro-3-methyl-N-[(thiophen-2-yl)methyl]thieno[3,2-b]pyridin-7-amine], the “EC2x for IKBKAP protein expression (concentration producing two times the amount of IKBKAP protein vs DMSO vehicle control)” value is reported as “***** (≤0.005 μM is indicated by five stars (*****))” and the “MFI (maximum fold increase in IKBKAP protein abundance relative to the vehicle control)” value is reported as “***** (>4.9 is indicated by five stars (*****))”.
`Cc1c(C[C@H](C)N)sc2c(NCc3ccco3)ccnc12` [Compound 34, 2-[(2S)-2-aminopropyl]-N-[(furan-2-yl)methyl]-3-methylthieno[3,2-b]pyridin-7-amine] was tested, and the “EC2x for IKBKAP protein expression (concentration producing two times the amount of IKBKAP protein vs DMSO vehicle control)” value was “**** (between >0.005 μM and ≤0.02 μM is indicated by four stars (****))” and the “MFI (maximum fold increase in IKBKAP protein abundance relative to the vehicle control)” value was “***** (>4.9 is indicated by five stars (*****))”.
For `Cc1c(C[C@H](C)N)sc2c(NCc3ccncc3F)cc(Cl)nc12` [Compound 35, 2-[(2S)-2-aminopropyl]-5-chloro-N-[(3-fluoropyridin-4-yl)methyl]-3-methylthieno[3,2-b]pyridin-7-amine], the “EC2x for IKBKAP protein expression (concentration producing two times the amount of IKBKAP protein vs DMSO vehicle control)” value was “***** (≤0.005 μM is indicated by five stars (*****))” and the “MFI (maximum fold increase in IKBKAP protein abundance relative to the vehicle control)” value was “***** (>4.9 is indicated by five stars (*****))”.
`C[C@H](N)Cc1sc2c(NCc3ccco3)cc(Cl)nc2c1Cl` [Compound 36, 2-[(2S)-2-aminopropyl]-3,5-dichloro-N-[(furan-2-yl)methyl]thieno[3,2-b]pyridin-7-amine] was tested, and the “EC2x for IKBKAP protein expression (concentration producing two times the amount of IKBKAP protein vs DMSO vehicle control)” value was “***** (≤0.005 μM is indicated by five stars (*****))” and the “MFI (maximum fold increase in IKBKAP protein abundance relative to the vehicle control)” value was “***** (>4.9 is indicated by five stars (*****))”.
`C[C@H](N)Cc1sc2c(NCc3ccco3)cc(Cl)nc2c1Br` [Compound 37, 2-[(2S)-2-aminopropyl]-3-bromo-5-chloro-N-[(furan-2-yl)methyl]thieno[3,2-b]pyridin-7-amine] was tested, and the “EC2x for IKBKAP protein expression (concentration producing two times the amount of IKBKAP protein vs DMSO vehicle control)” value was “***** (≤0.005 μM is indicated by five stars (*****))” and the “MFI (maximum fold increase in IKBKAP protein abundance relative to the vehicle control)” value was “***** (>4.9 is indicated by five stars (*****))”.
For `C[C@H](N)Cc1sc2c(NCc3nccs3)cc(Cl)nc2c1Cl` [Compound 38, 2-[(2S)-2-aminopropyl]-3,5-dichloro-N-[(1,3-thiazol-2-yl)methyl]thieno[3,2-b]pyridin-7-amine], the “EC2x for IKBKAP protein expression (concentration producing two times the amount of IKBKAP protein vs DMSO vehicle control)” value was “***** (≤0.005 μM is indicated by five stars (*****))” and the “MFI (maximum fold increase in IKBKAP protein abundance relative to the vehicle control)” value was “***** (>4.9 is indicated by five stars (*****))”.
With `N[C@@H](CO)Cc1sc2c(NCc3ccco3)cc(Cl)nc2c1Cl` [Compound 39, (2R)-2-amino-3-(3,5-dichloro-7-{[(furan-2-yl)methyl]amino}thieno[3,2-b]pyridin-2-yl)propan-1-ol] the “EC2x for IKBKAP protein expression (concentration producing two times the amount of IKBKAP protein vs DMSO vehicle control)” value was “***** (≤0.005 μM is indicated by five stars (*****))” and the “MFI (maximum fold increase in IKBKAP protein abundance relative to the vehicle control)” value was “***** (>4.9 is indicated by five stars (*****))”.
For `COC[C@H](N)Cc1sc2c(NCc3ccco3)cc(Cl)nc2c1Cl` [Compound 40, 2-[(2R)-2-amino-3-methoxypropyl]-3,5-dichloro-N-[(furan-2-yl)methyl]thieno[3,2-b]pyridin-7-amine], the “EC2x for IKBKAP protein expression (concentration producing two times the amount of IKBKAP protein vs DMSO vehicle control)” value was “***** (≤0.005 μM is indicated by five stars (*****))” and the “MFI (maximum fold increase in IKBKAP protein abundance relative to the vehicle control)” value was “***** (>4.9 is indicated by five stars (*****))”.
`N[C@@H](CO)Cc1sc2c(NCc3ccco3)cc(Cl)nc2c1Br` [Compound 41, (2R)-2-amino-3-(3-bromo-5-chloro-7-{[(furan-2-yl)methyl]amino}thieno[3,2-b]pyridin-2-yl)propan-1-ol] was tested, and the “EC2x for IKBKAP protein expression (concentration producing two times the amount of IKBKAP protein vs DMSO vehicle control)” value was “***** (≤0.005 μM is indicated by five stars (*****))” and the “MFI (maximum fold increase in IKBKAP protein abundance relative to the vehicle control)” value was “***** (>4.9 is indicated by five stars (*****))”.
`CN[C@@H](C)Cc1sc2c(NCc3ccco3)cc(Cl)nc2c1C` [Compound 42, 5-chloro-N-[(furan-2-yl)methyl]-3-methyl-2-[(2S)-2-(methylamino)propyl]thieno[3,2-b]pyridin-7-amine] was tested, and the “EC2x for IKBKAP protein expression (concentration producing two times the amount of IKBKAP protein vs DMSO vehicle control)” value was “**** (between >0.005 μM and ≤0.02 μM is indicated by four stars (****))” and the “MFI (maximum fold increase in IKBKAP protein abundance relative to the vehicle control)” value was “***** (>4.9 is indicated by five stars (*****))”.
`C[C@H](N)Cc1sc2c(NCc3nccs3)cc(Cl)nc2c1Br` [Compound 43, 2-[(2S)-2-aminopropyl]-3-bromo-5-chloro-N-[(1,3-thiazol-2-yl)methyl]thieno[3,2-b]pyridin-7-amine] was tested, and the “EC2x for IKBKAP protein expression (concentration producing two times the amount of IKBKAP protein vs DMSO vehicle control)” value was “***** (≤0.005 μM is indicated by five stars (*****))” and the “MFI (maximum fold increase in IKBKAP protein abundance relative to the vehicle control)” value was “***** (>4.9 is indicated by five stars (*****))”.
In the case of `COC[C@H](N)Cc1sc2c(NCc3ccco3)cc(Cl)nc2c1Br` [Compound 44, 2-[(2R)-2-amino-3-methoxypropyl]-3-bromo-5-chloro-N-[(furan-2-yl)methyl]thieno[3,2-b]pyridin-7-amine], the “EC2x for IKBKAP protein expression (concentration producing two times the amount of IKBKAP protein vs DMSO vehicle control)” value is reported as “***** (≤0.005 μM is indicated by five stars (*****))” and the “MFI (maximum fold increase in IKBKAP protein abundance relative to the vehicle control)” value is reported as “***** (>4.9 is indicated by five stars (*****))”.
`COC[C@H](N)Cc1sc2c(NCc3ccco3)cc(Cl)nc2c1C` [Compound 45, 2-[(2R)-2-amino-3-methoxypropyl]-5-chloro-N-[(furan-2-yl)methyl]-3-methylthieno[3,2-b]pyridin-7-amine] was tested, and the “EC2x for IKBKAP protein expression (concentration producing two times the amount of IKBKAP protein vs DMSO vehicle control)” value was “***** (≤0.005 μM is indicated by five stars (*****))” and the “MFI (maximum fold increase in IKBKAP protein abundance relative to the vehicle control)” value was “***** (>4.9 is indicated by five stars (*****))”.
For `N[C@@H](CF)Cc1sc2c(NCc3ccco3)cc(Cl)nc2c1Br` [Compound 46, 2-[(2R)-2-amino-3-fluoropropyl]-3-bromo-5-chloro-N-[(furan-2-yl)methyl]thieno[3,2-b]pyridin-7-amine], the “EC2x for IKBKAP protein expression (concentration producing two times the amount of IKBKAP protein vs DMSO vehicle control)” value was “***** (≤0.005 μM is indicated by five stars (*****))” and the “MFI (maximum fold increase in IKBKAP protein abundance relative to the vehicle control)” value was “***** (>4.9 is indicated by five stars (*****))”.
With `N[C@@H](CCF)Cc1sc2c(NCc3nccs3)cc(Cl)nc2c1Cl` [Compound 47, 2-[(2S)-2-amino-4-fluorobutyl]-3,5-dichloro-N-[(1,3-thiazol-2-yl)methyl]thieno[3,2-b]pyridin-7-amine] the “EC2x for IKBKAP protein expression (concentration producing two times the amount of IKBKAP protein vs DMSO vehicle control)” value was “***** (≤0.005 μM is indicated by five stars (*****))” and the “MFI (maximum fold increase in IKBKAP protein abundance relative to the vehicle control)” value was “***** (>4.9 is indicated by five stars (*****))”.
`N[C@@H](CCO)Cc1sc2c(NCc3nccs3)cc(Cl)nc2c1Cl` [Compound 48, (3S)-3-amino-4-(3,5-dichloro-7-{[(1,3-thiazol-2-yl)methyl]amino}thieno[3,2-b]pyridin-2-yl)butan-1-ol] was tested, and the “EC2x for IKBKAP protein expression (concentration producing two times the amount of IKBKAP protein vs DMSO vehicle control)” value was “***** (≤0.005 μM is indicated by five stars (*****))” and the “MFI (maximum fold increase in IKBKAP protein abundance relative to the vehicle control)” value was “***** (>4.9 is indicated by five stars (*****))”.
With `C[C@H](N)Cc1sc2c(NCc3ccco3)cc(C#N)nc2c1Br` [Compound 49, 2-[(2S)-2-aminopropyl]-3-bromo-7-{[(furan-2-yl)methyl]amino}thieno[3,2-b]pyridine-5-carbonitrile] the “EC2x for IKBKAP protein expression (concentration producing two times the amount of IKBKAP protein vs DMSO vehicle control)” value was “***** (≤0.005 μM is indicated by five stars (*****))” and the “MFI (maximum fold increase in IKBKAP protein abundance relative to the vehicle control)” value was “***** (>4.9 is indicated by five stars (*****))”.
In the case of `C[C@H](N)Cc1sc2c(NCc3ccco3)cc(C#N)nc2c1C#N` [Compound 50, 2-[(2S)-2-aminopropyl]-7-{[(furan-2-yl)methyl]amino}thieno[3,2-b]pyridine-3,5-dicarbonitrile], the “EC2x for IKBKAP protein expression (concentration producing two times the amount of IKBKAP protein vs DMSO vehicle control)” value is reported as “**** (between >0.005 μM and ≤0.02 μM is indicated by four stars (****))” and the “MFI (maximum fold increase in IKBKAP protein abundance relative to the vehicle control)” value is reported as “**** (between >3.9 and ≤4.9 is indicated by four stars (****))”.
`C[C@H](N)Cc1sc2c(NCc3ccco3)cc(Cl)nc2c1C1CC1` [Compound 51, 2-[(2S)-2-aminopropyl]-5-chloro-3-cyclopropyl-N-[(furan-2-yl)methyl]thieno[3,2-b]pyridin-7-amine] was tested, and the “EC2x for IKBKAP protein expression (concentration producing two times the amount of IKBKAP protein vs DMSO vehicle control)” value was “***** (≤0.005 μM is indicated by five stars (*****))” and the “MFI (maximum fold increase in IKBKAP protein abundance relative to the vehicle control)” value was “***** (>4.9 is indicated by five stars (*****))”.
